Data: patent publication US10080811B2, “Diagnostic marker compounds and their use” (University of Leeds, priority 2012, dated 2018)

Tests used:
SH-SY5Y cells = details: 500 μM H2O2 24 hours before, 24 hours exposure
Protocol: Cytoprotective effect tests were performed on SH-SY5Y cells that had previously been exposed to hydrogen peroxide for 24 hours.

C57BL/6J mice = details: IP injection
Protocol: After 24 hours mice were perfused transcardially with 0.9% saline followed by 4% paraformaldehyde. Brains, arteries, heart, liver kidneys were removed, post-fixed and […] sections were cut on a vibratome (Leica Microsystems, Germany) The sections were mounted on slides, dried at 4° C., cover slipped using vectashield mounting medium and examined using a Zeiss laser scanning confocal microscope (LSM 510).

Structure (SMILES)	cytoprotective potency, comparison of the two nitrates (SH-SY5Y cells)	effect on hydrogen peroxide's cytotoxicity (SH-SY5Y cells; n=80)	blood brain barrier passage (labelling in the brain tissue) (C57BL/6J mice)	highest number of fluorescent peaks, brain tissue (C57BL/6J mice; 100 μM solution, 24 hours) [peaks per 100 μm^2 area]	highest number of fluorescent peaks, heart tissue (C57BL/6J mice; 100 μM solution, 24 hours) [peaks in a 100 μm^2 area]	highest number of fluorescent peaks, liver tissue (C57BL/6J mice; 100 μM solution, 24 hours) [peaks in a 100 μm^2 area]	highest number of fluorescent peaks, lung tissue (C57BL/6J mice; 100 μM solution, 24 hours) [peaks in a 100 μm^2 area]	uptake into hepatocytes in liver tissue (C57BL/6J mice; higher magnifications)
O=[N+]([O-])[O-].O=[N+]([O-])[O-].O=[N+]([O-])[O-].[Ce+3] [cerium nitrate]	more potent antioxidant-based cytoprotective agent compared to europium nitrate	significantly inhibiting hydrogen peroxide's cytotoxicity						
O=[N+]([O-])[O-].O=[N+]([O-])[O-].O=[N+]([O-])[O-].[Eu+3] [europium nitrate]			cross the blood brain barrier	≥ 20	≤ 1	< 10	≤ 1	had entered the hepatocytes
